Measurements as given in EP2027081B1, “THERAPEUTIC PROSTAGLANDIN COMPOUNDS FOR THE TREATMENT OF GLAUCOMA” (ALLERGAN, INC., priority 2006, dated 2007).
Where two headings read alike, the source gives them in different places.

Legend:
[1] = biological target: T1, hEP3A/Gqi5 (Homo sapiens, UniProt P43115); assay: FLIPR calcium signal study, HEK-293(EBNA) cells; assay type: cell-based
T1 construct: expressed in transfected cells; host or cells: HEK-293(EBNA)
T1 sequence (P43115 1-390): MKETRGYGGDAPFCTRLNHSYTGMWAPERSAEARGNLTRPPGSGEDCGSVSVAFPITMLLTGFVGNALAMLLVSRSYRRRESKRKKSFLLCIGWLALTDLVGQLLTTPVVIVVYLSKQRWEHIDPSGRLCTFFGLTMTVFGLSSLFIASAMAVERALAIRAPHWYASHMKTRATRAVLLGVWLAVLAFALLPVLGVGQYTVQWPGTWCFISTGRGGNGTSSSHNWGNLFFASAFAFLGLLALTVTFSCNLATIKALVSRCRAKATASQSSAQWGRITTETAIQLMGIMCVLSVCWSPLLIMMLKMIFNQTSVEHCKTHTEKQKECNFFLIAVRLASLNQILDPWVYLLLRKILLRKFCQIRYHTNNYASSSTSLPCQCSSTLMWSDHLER
Method: (§1) HEK-293(EBNA) cells, stably expressing one type or subtype of recombinant human prostaglandin receptors (prostaglandin receptors expressed: hDP/Gqs5; hEP1; hEP2/Gqs5; hEP3A/Gqi5; hEP4/Gqs5; hFP; hIP; hTP), were cultured in 100 mm culture dishes in high-glucose DMEM medium containing 10% fetal bovine serum, 2 mM I-glutamine, 250 µg/ml geneticin (G418) and 200 µg/ml hygromycin B as selection markers, and 100 units/ml penicillin G, 100 µg/ml streptomycin and 0.25 µg/ml amphotericin B.
(§2) Cells were seeded at a density of 5x10^4 cells per well in Biocoat® Poly-D-lysine-coated black-wall, clear-bottom 96-well plates (Becton-Dickinson) and allowed to attach overnight in an incubator at 37 °C. Cells were then washed two times with HBSS-HEPES buffer (Hanks Balanced Salt Solution without bicarbonate and phenol red, 20 mM HEPES, pH 7.4) using a Denley Cellwash plate washer (Labsystems). After 45 minutes of dye-loading in the dark, using the calcium-sensitive dye Fluo-4 AM at a final concentration of 2 µM, plates were washed four times with HBSS-HEPES buffer to remove excess dye leaving 100 µl in each well. Plates were re-equilibrated to 37 °C for a few minutes.
(§3) Cells were excited with an Argon laser at 488 nm, and emission was measured through a 510-570 nm bandwidth emission filter (FLIPR™, Molecular Devices, Sunnyvale, CA). Drug solution was added in a 50 µl volume to each well to give the desired final concentration. The peak increase in fluorescence intensity was recorded for each well. On each plate, four wells each served as negative (HBSS-HEPES buffer) and positive controls (standard agonists: BW245C (hDP); PGE2 (hEP1; hEP2/Gqs5; hEP3A/Gqi5; hEP4/Gqs5); PGF2α (hFP); carbacyclin (hIP); U-46619 (hTP), depending on receptor). The peak fluorescence change in each drug-containing well was then expressed relative to the controls.
(§4) Compounds were tested in a high-throughput (HTS) or concentration-response (CoRe) format. In the HTS format, forty-four compounds per plate were examined in duplicates at a concentration of 10^-5 M. To generate concentration-response curves, four compounds per plate were tested in duplicates in a concentration range between 10^-5 and 10^-11 M. The duplicate values were averaged. In either, HTS or CoRe format each compound was tested on at least 3 separate plates using cells from different passages to give an n ≥ 3.

[2] = biological target: T2, hEP2/Gqs5 (Homo sapiens, UniProt P43116); assay: FLIPR calcium signal study, HEK-293(EBNA) cells; assay type: cell-based
T2 construct: expressed in transfected cells; host or cells: HEK-293(EBNA)
Method: as §2
Cells were excited with an Argon laser at 488 nm, and emission was measured through a 510-570 nm bandwidth emission filter (FLIPR™, Molecular Devices, Sunnyvale, CA). […] The peak increase in fluorescence intensity was recorded for each well. […] The peak fluorescence change in each drug-containing well was then expressed relative to the controls.
as §4, with “averaged.” for “averaged. In either, HTS or CoRe format each compound was tested on at least 3 separate plates using cells from different passages to give an n ≥ 3.”

[3] = biological target: T3, hEP4/Gqs5 (Homo sapiens, UniProt P35408); assay: FLIPR calcium signal study, HEK-293(EBNA) cells; assay type: cell-based; conditions: Table 1; NA means not active; read-out: FUNCTIONAL (Ca2+, EC50, nM) HEP 4
T3 construct: expressed in transfected cells; host or cells: HEK-293(EBNA)
Method: as §1, §2, §3, §4

[4] = biological target: T4, hTP (Homo sapiens, UniProt P21731); assay: FLIPR calcium signal study, HEK-293(EBNA) cells; assay type: cell-based; conditions: Table 1; NA means not active; read-out: FUNCTIONAL (Ca2+, EC50, nM) HTP
T4 construct: expressed in transfected cells; host or cells: HEK-293(EBNA)
T4 sequence (P21731 1-343): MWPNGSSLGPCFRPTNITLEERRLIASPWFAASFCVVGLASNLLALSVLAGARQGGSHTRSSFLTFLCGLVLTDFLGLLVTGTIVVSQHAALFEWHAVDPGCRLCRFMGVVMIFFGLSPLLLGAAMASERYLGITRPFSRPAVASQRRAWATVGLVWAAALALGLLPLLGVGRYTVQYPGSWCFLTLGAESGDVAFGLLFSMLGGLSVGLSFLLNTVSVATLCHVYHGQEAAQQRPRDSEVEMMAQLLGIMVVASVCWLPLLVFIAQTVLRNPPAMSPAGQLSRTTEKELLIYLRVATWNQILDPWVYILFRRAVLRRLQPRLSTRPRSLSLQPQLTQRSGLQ
Method: as §1, §2, §3, §4

[5] = biological target: T5, human EP2 receptors (Homo sapiens, UniProt P43116); assay: Competition binding, [3H]PGE2, HEK 293 cells stably expressing human EP2 receptors
T5 construct: expressed in transfected cells; host or cells: HEK 293
Method: Competition binding experiments were performed in a medium containing Hank's balanced salt solution, Hepes 20 mM, pH 7.3, membranes (∼60 µg protein) or 2x10^5 cells from HEK 293 cells stably expressing human EP2 receptors, [^3H]PGE2 (10 nM) and various concentrations of test compounds in a total volume of 300 µl. Reaction mixtures were incubated at 23 °C for 60 min, and were filtered over Whatman GF/B filters under vacuum. Filters were washed three times with 5 ml ice-cold buffer containing 50 mM Tris/HCl (pH 7.3). Non-specific binding was estimated in the presence of excess unlabeled PGE2 (10 µM). Binding data fitted to the binding model for a single class of binding sites, using nonlinear regression analysis.
(§5) HEK-293 cells stably expressing the human or feline FP receptor, or EP1, EP2, or EP4 receptors were washed with TME buffer, scraped from the bottom of the flasks, and homogenized for 30 sec using a Brinkman PT 10/35 polytron. TME buffer was added to achieve a final 40 ml volume in the centrifuge tubes (the composition of TME is 100 mM TRIS base, 20 mM MgCl2, […]; 10N HCl is added to achieve a pH of 7.4).
(§6) The cell homogenate was centrifuged at 19000 r.p.m. for 20 min at 4° C using a Beckman Ti-60 rotor. The resultant pellet was resuspended in TME buffer to give a final 1 mg/ml protein concentration, as determined by Biorad assay. Radioligand binding competition assays vs. [^3H-]17 -phenyl PGF2α (5 nM) were performed in a 100µl volume for 60 min. Binding reactions were started by adding plasma membrane fraction. The reaction was terminated by the addition of 4 ml ice-cold TRIS-HCl buffer and rapid filtration through glass fiber GF/B filters using a Brandel cell harvester. The filters were washed 3 times with ice-cold buffer and oven dried for one hour.
(§7) [^3H-] PGE2 (specific activity 180 Ci mmol) was used as the radioligand for EP receptors. [^3H] 17-phenyl PGF2α was employed for FP receptor binding studies. Binding studies employing EP1, EP2, EP4 and FP receptors were performed in duplicate in at least three separate experiments. A 200µl assay volume was used. Incubations were for 60 min at 25°C and were terminated by the addition of 4 ml of ice-cold 50 mM TRIS-HCl, followed by rapid filtration through Whatman GF/B filters and three additional 4 ml washes in a cell harvester (Brandel). Competition studies were performed using a final concentration of 5 nM [^3H]-PGE2, or 5 nM [^3H] 17-phenyl PGF2α and non-specific binding determined with 10^-5M of unlabeled PGE2, or 17-phenyl PGF2α, according to receptor subtype studied.

[6] = biological target: HEP 2 (Homo sapiens, UniProt P43116); assay: cAMP mediated assay; assay type: cell-based; conditions: Table 1; value in brackets, footnote (a)
[7] = biological target: T6, EP4 receptors (Homo sapiens, UniProt P35408); assay: Radioligand binding, EP4 receptor; conditions: Table 3; read-out: BINDING (Ki, nM) HEP4
T6 construct: expressed in transfected cells; host or cells: HEK-293
Method: as §5, §6, §7

[8] = biological target: T7, HEP3 (Homo sapiens, UniProt P43115); assay: Radioligand binding, EP3 receptor; conditions: Table 3; NA means not active
T7 sequence (P43115 1-390): T1 sequence (P43115 1-390)

[9] = Table 1, NA means not active, read-out: FUNCTIONAL (Ca2+, EC50, nM) HEP 3A
[10] = Table 1, Ca2+ signal, NA means not active, read-out: FUNCTIONAL (Ca2+, EC50, nM) HEP 2
[11] = Table 2, unit inferred, read-out: BINDING HEP2
[12] = Table 2, unit inferred, read-out: FUNCTIONAL HEP2
[13] = Table 3, read-out: FUNCTIONAL (Ca2+, EC50, nM) HEP3A

T5 sequence (P43116 whole entry): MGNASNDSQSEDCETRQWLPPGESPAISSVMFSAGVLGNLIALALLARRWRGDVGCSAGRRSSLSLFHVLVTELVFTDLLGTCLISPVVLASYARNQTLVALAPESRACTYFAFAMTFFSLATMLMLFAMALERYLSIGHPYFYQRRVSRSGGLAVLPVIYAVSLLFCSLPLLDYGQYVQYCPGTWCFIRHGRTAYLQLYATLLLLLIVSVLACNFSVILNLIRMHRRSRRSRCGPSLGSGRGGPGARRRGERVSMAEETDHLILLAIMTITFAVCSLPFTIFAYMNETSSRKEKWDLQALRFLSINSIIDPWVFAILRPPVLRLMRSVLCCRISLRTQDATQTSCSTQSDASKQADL
T2 sequence (P43116 whole entry): as above
T6 sequence (P35408 whole entry): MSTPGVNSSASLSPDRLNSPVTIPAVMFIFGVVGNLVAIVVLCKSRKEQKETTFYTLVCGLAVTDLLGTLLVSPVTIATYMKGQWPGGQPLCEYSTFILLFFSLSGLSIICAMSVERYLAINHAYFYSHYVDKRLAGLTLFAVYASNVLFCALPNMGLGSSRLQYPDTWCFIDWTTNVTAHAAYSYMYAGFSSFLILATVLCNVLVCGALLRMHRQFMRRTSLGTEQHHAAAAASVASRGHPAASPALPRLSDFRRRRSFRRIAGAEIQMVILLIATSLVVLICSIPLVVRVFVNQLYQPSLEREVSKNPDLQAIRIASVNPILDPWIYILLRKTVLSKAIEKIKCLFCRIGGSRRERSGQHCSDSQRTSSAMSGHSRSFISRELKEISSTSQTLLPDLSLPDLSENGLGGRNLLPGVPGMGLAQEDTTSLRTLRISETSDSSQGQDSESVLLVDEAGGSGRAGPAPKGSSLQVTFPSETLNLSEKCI
HEP 2, sequence (P43116 whole entry): as the sequence (P43116 whole entry) above
T3 sequence (P35408 whole entry): as the sequence (P35408 whole entry) above

CCCC1(C(O)c2cccc([C@H]3CCC(=O)[C@@H]3CCCCCCC(=O)O)c2)CCC1 (some centres unmarked) [Entry 4]
EC50 [1, 9]: 3830 nM | EC50 [2, 10]: 3410 nM

CC(C)(C)c1ccc([C@H]2CCC(=O)[C@@H]2C/C=C\CCCC(=O)O)cc1 [Entry 8]
EC50 [2, 10]: 1050 nM

CCCC1(C(O)c2ccc([C@H]3CCC(=O)[C@@H]3C/C=C\CCCC(=O)O)cc2)CCC1 (some centres unmarked) [Entry 9]
EC50 [3]: > 10000 nM | EC50 [2, 10]: > 10000 nM

COC(=O)CCC/C=C\C[C@H]1C(=O)CC[C@@H]1c1ccc(C(O)C2CCCCC2)cc1 (some centres unmarked) [Entry 10]
EC50 [2, 10]: > 10000 nM

COC(=O)CCCCCC[C@H]1C(=O)CC[C@@H]1c1ccc(C(O)C2CCCCC2)cc1 (some centres unmarked) [Entry 12]
EC50 [4]: > 10000 nM | EC50 [2, 10]: > 10000 nM

O=C(O)CCCCCC[C@H]1C(=O)CC[C@@H]1c1ccc(C(O)C2CCCCC2)cc1 (some centres unmarked) [Entry 13]
EC50 [2, 10]: 2050 nM

O=C(O)CCCCCC[C@H]1C(=O)CC[C@@H]1c1ccc(C2(O)CCC2)cc1 [Entry 17]
EC50 [2, 10]: > 10000 nM

O=C(O)CCC/C=C\C[C@H]1[C@H](Cl)CC[C@@H]1c1ccc(C(O)C2CCCCC2)cc1 (some centres unmarked) [Entry 19]
EC50 [2, 10]: 2100 nM

O=C(O)CCCCCC[C@H]1[C@H](Cl)CC[C@@H]1c1ccc(C(O)C2CCCCC2)cc1 (some centres unmarked) [Entry 21]
EC50 [4]: > 10000 nM | EC50 [2, 10]: > 10000 nM

CCCCCC(O)c1ccc([C@H]2CCC(=O)[C@@H]2CCCc2ccc(C(=O)O)s2)cc1 (some centres unmarked) [Entry 23]
Ki ([5]; Table 1, read-out: BINDING (Ki, nM) HEP 2): 54 nM | EC50 [1, 9]: 55 nM | EC50 [6]: 0.003 µM | EC50 [2, 10]: 2 nM

CCCCCC(O)c1ccc([C@H]2CCC(=O)[C@@H]2C/C=C\CCCC(=O)OC)cc1 (some centres unmarked) [drawing 96]
Ki [5, 11]: 15000 nM | EC50 [2, 12]: 15000 nM

CCCCCC(O)c1ccc([C@H]2CCC(=O)[C@@H]2C/C=C\CCCC(=O)O)cc1 (some centres unmarked) [drawing 97]
Ki [5, 11]: 700 nM | EC50 [2, 12]: 1010 nM

CCCCCC(O)c1ccc([C@H]2CCC(=O)[C@@H]2C/C=C\CCCC(=O)OC)cc1 (some centres unmarked) [drawing 115]
EC50 [1, 13]: 15000 nM | Ki [7]: 15000 nM

CCCCCC(O)c1ccc([C@H]2CCC(=O)[C@@H]2C/C=C\CCCC(=O)O)cc1 (some centres unmarked) [drawing 116]
Ki [8]: 15000 nM | EC50 [1, 13]: 552 nM | Ki [7]: 15000 nM
